Measurements taken from article PMC9386795 (ACS Omega, 2022).
In brackets after ≈: the same amount, converted by molar mass. Entries after “also recorded” stand apart in the source; their conditions may differ.

Assays:
[1] = system: methicillin susceptible SA (MSSA), S. aureus ATCC 29213; assay: Broth microdilution MIC assay against MSSA; conditions: for MIC: Staphylococcus aureus, ATCC29213|MSSA, read-out: MSSA MIC
[2] = system: wild-type PA (WTPA), P. aeruginosa ATCC 9027; assay: Broth microdilution MIC assay against WTPA; conditions: for MIC: Pseudomonas aeruginosa, ATCC9027, read-out: WTPA MIC
PA ATP synthase = PA ATP synthase (Pseudomonas aeruginosa, UniProt Q9HT15); assay: ATP synthesis assay with PA inverted membrane vesicles; assay type: biochemical; conditions: for inhibition of PA ATP synthase (in words): PA inverted membrane vesicles; for extent of inhibition of ATP synthesis activity at highest concentration: 128 μg/mL compound
[3] = system: electron transport chain in PA vesicles; assay: Electron transport chain activity; assay type: biochemical, Pseudomonas aeruginosa; conditions: 64 μg/mL compound, NADH
PA [4] = conditions: cited from earlier work
PA [5] = assay: Adjuvant assay with pentamidine, PA growth in liquid culture; assay type: cell-based, Pseudomonas aeruginosa; conditions: 50 and 100 μM pentamidine, compared to compound alone
[6] = n = 3, >85% reduction in growth at OD 590 nm

Row | Compound | MIC [1] | MIC [2] | inhibition of PA ATP synthase (in words) (PA ATP synthase) | extent of inhibition of ATP synthesis activity at highest concentration (PA ATP synthase) | reduction of PA growth when co-dosed with pentamidine (in words) (PA [5]) | further results
1 | CSc1nc2ccccc2cc1C=O [Compound 6, 2-(Methylthio)quinoline-3-carbaldehyde] | 64 µg/mL (≈ 315 µM) | – | – | – | – | –
2 | CCOC(=O)C1=C(C)NC(=O)NC1c1cc2ccccc2nc1OC (stereo not shown) [Compound 9, Ethyl 4-(2-Methoxyquinolin-3-yl)-6-methyl-2-oxo-1,2,3,4-tetrahydropyrimidine-5-carboxylate] | > 128 µg/mL | > 128 µg/mL | – | – | – | –
3 | COc1nc2ccccc2cc1/C=N/NC(=O)c1ccccc1 [Compound 10, (E)-N′-((2-Methoxyquinolin-3-yl)methylene)benzohydrazide] | > 128 µg/mL | > 128 µg/mL | dose-dependent inhibition | – | – | IC50 (PA ATP synthase): 6.55 to 55.7 µM; H+ gradient formation by the electron transport chain [3]: significant inhibition
4 | COc1nc2ccccc2cc1/C=N/N=C/c1cc2ccccc2nc1OC [Compound 11, (1E,2E)-1,2-Bis((2-methoxyquinolin-3-yl)methylene)hydrazine] | > 128 µg/mL | > 128 µg/mL | – | – | – | MIC (PA [4]; PA): 80 µg/mL (≈ 216 µM)
5 | COc1nc2ccccc2cc1/C=N/NC(N)=S [Compound 12, (E)-2-((2-Methoxyquinolin-3-yl)methylene)hydrazine-1-carbothioamide] | > 128 µg/mL | > 128 µg/mL | – | – | – | activity against PA (in words) (PA [4]; compared with 11): weaker activity
6 | COC(=O)[C@H](C)NCc1cc2ccccc2nc1OC [Compound 14, Methyl ((2-Methoxyquinolin-3-yl)methyl)-L-alaninate] | > 128 µg/mL | > 128 µg/mL | – | – | – | –
7 | COC(=O)[C@@H](NCc1cc2ccccc2nc1OCc1ccccc1)C(C)C [Compound 15, Methyl ((2-(Benzyloxy)quinolin-3-yl)methyl)-L-valinate] | > 128 µg/mL | > 256 µg/mL | dose-dependent inhibition; also recorded: active | not complete | no significant reduction in growth | –
8 | COC(=O)[C@H](Cc1ccc(O)cc1)NCc1cc2ccccc2nc1SC [Compound 22, Methyl ((2-(Methylthio)quinolin-3-yl)methyl)-L-tyrosinate] | > 128 µg/mL | > 256 µg/mL | dose-dependent inhibition; also recorded: active; also recorded: strongest activity | complete inhibition | statistically significant reduction | –
9 | (E)-2-(2-((2-Methoxyquinolin-3-yl)methylene)hydrazineyl)-4-phenylthiazole [Compound 13] | – | – | – | – | – | MSSA MIC [1, 6]: >128 µg/mL; WTPA MIC [2, 6]: >128 µg/mL

The next lines start with results.

Row | MIC [1] | MIC [2] | inhibition of PA ATP synthase (in words) (PA ATP synthase) | extent of inhibition of ATP synthesis activity at highest concentration (PA ATP synthase) | Compound | reduction of PA growth when co-dosed with pentamidine (in words) (PA [5]) | further results
10 | > 128 µg/mL | > 128 µg/mL | – | – | COC(=O)[C@@H](CCSC)NCc1cc2ccccc2nc1OC [Compound 16, Methyl ((2-Methoxyquinolin-3-yl)methyl)-D-methioninate] | – | –
11 | 64 µg/mL (≈ 183 µM) | > 256 µg/mL | dose-dependent inhibition | not complete | COC(=O)[C@@H](CCSC)NCc1cc2ccccc2nc1SC [Compound 17, Methyl ((2-(Methylthio)quinolin-3-yl)methyl)-D-methioninate] | statistically significant reduction | –
12 | > 128 µg/mL | > 256 µg/mL | dose-dependent inhibition | complete inhibition | COC(=O)[C@H](Cc1c[nH]c2ccccc12)NCc1cc2ccccc2nc1OC [Compound 18, Methyl ((2-Methoxyquinolin-3-yl)methyl)-L-tryptophanate] | statistically significant reduction; also recorded: largest reduction in PA growth of the set | –
13 | > 128 µg/mL | > 256 µg/mL | dose-dependent inhibition | not complete | COC(=O)[C@H](Cc1c[nH]c2ccccc12)NCc1cc2ccccc2nc1SC [Compound 19, Methyl ((2-(Methylthio)quinolin-3-yl)methyl)-L-tryptophanate] | statistically significant reduction | –
14 | > 128 µg/mL | > 128 µg/mL | – | – | COC(=O)[C@H](Cc1ccc(O)cc1)NCc1cc2ccccc2nc1OC [Compound 20, Methyl ((2-Methoxyquinolin-3-yl)methyl)-L-tyrosinate] | – | –
15 | > 128 µg/mL | > 128 µg/mL | not active | – | COC(=O)[C@H](Cc1ccc(O)cc1)NCc1cc2ccccc2nc1OCc1ccccc1 [Compound 21, Methyl ((2-(Benzyloxy)quinolin-3-yl)methyl)-L-tyrosinate] | – | –
16 | > 128 µg/mL | > 128 µg/mL | – | – | COC(=O)[C@@H](Cc1c[nH]cn1)NCc1cc2ccccc2nc1OC [Compound 23, Methyl ((2-Methoxyquinolin-3-yl)methyl)-D-histidinate] | – | –
